According to patent US20180353403A1, “SKIN-WHITENING COSMETIC COMPOSITION CONTAINING ROSEMARY-DERIVED VERBENONE AS ACTIVE INGREDIENT” (Jeju National University Industry-Academic Cooperation …, priority 2014, published 2018):

What was measured:
mushroom tyrosinase = experiment: Mushroom tyrosinase inhibition assay; format: biochemical
Procedure: 60 μl of a 1 M phosphate buffer (pH 6.8), 10 μl of a sample solution, and 20 μl of 500 U/ml mushroom tyrosinase were sequentially added, and then incubated at room temperature for 5 minutes. After incubation, 60 μl of an aqueous solution containing 1 mM L-tyrosine was added to initiate a reaction. The reaction was performed at 37° C. for 30 minutes, and absorbance was measured at 490 nm. Mushroom tyrosinase inhibition activity was calculated by the following equation.
Mushroom tyrosinase inhibition activity (%)=(B−A)/A×100
(§1) A: OD490 value of treated group
B: OD490 value of blank control

B 16F10 melanoma cells = experiment: Measurement of melanin content in B16F10 cells; format: cell-based, mouse
Procedure: B 16F10 melanoma cells, obtained from mice, were used as melanin-producing cells. The cultured B 16F10 cells were treated with […] α-melanocyte-stimulating hormone (α-MSH) (a control group). After 1 day, 2.5, 1.25, 0.625 mM verbenone and 2 mM arbutin (a positive control group) were added to the cells, the cells were cultured for 1 day and 2 days, respectively (experimental groups). The cultured cells were washed twice with PBS and harvested by centrifugation at 1500 rpm for 5 minutes. 300 ill of 1 N NaOH containing 10% DMSO was added to the cell pellet and then incubated at 80° C. for 1 hour to dissolve melanin. Melanin content was calculated by the following equation.
Melanin content (%)=A/B×100
as §1
B: OD490 value of non-treated group

[1] = system: tyrosinase in B16F10 cells; experiment: Tyrosinase inhibition activity in B16F10 cells; format: cell-based, mouse; details: α-MSH for one day, then 0.625, 1.25 and 2.5 mM, measured after 24 and 48 hours (FIG. 3)
Procedure: Cultured cells were harvested by adding […]. After harvesting, 500 μl of a cell lysis buffer (10 mM sodium phosphate buffer containing 1% Triton X-100 and 0.1 mM PMSF) was added to the harvested cells. To lyse the cells, sonication was performed on the cells and subsequently the cells were incubated on ice for 30 minutes. The lysed cells were centrifuged at 13000 rpm for 30 minutes, and the obtained cell lysate was used to measure tyrosinase activity.
To evaluate the inhibitory efficacy of verbenone against tyrosinase in B16F10 mouse melanoma cells, B16F10 cells were treated with α-MSH for one day to increase tyrosinase. Then, the cells were treated with verbenone at concentrations of 0.625, 1.25 and 2.5 mM, respectively, and tyrosinase activity was measured after 24 and 48 hours, respectively.

[2] = system: TRP-1, TRP-2, tyrosinase and MITF; experiment: Western blot of melanogenesis-related proteins in B16F10 cells; format: cell-based, mouse
Procedure: After 24 hours, the cells were treated with verbenone at concentrations of 0.625, 1.25, and 2.5 mM, respectively, followed by culturing for 72 hours. The cultured cells were harvested and washed three times with PBS. Then, to lyse the cells, 500 μl of a lysis buffer was added to the cells and the cells were sonicated, followed by incubation for 30 minutes. After cell lysis, centrifugation was performed at 12,000 rpm and 4° C. for 30 minutes to obtain a supernatant. Protein concentration was quantified using bovine serum albumin (BSA) as a standard. Equivalent amounts of the denatured lysates were loaded onto a 12% sodium dodecyl sulfate-polyacrylamide gel, and electrophoresis was performed at 45 mA to separate proteins. After sodium dodecyl sulfate-polyacrylamide gel electrophoresis (SDS-PAGE), the separated proteins present in the gel were transferred onto a membrane at 150 V for 80 minutes. Then, blocking of the membrane was performed for overnight using TTBS (TBS+0.1% Tween 20) solution containing 5% skim milk. Primary antibodies against melanogenesis-related proteins and actin were prepared in a ratio of 1:1,000, and a primary antibody reaction was performed at room temperature for 3 hours. Anti-rabbit IgG and anti-mouse IgG were used as secondary antibodies and diluted 1:5,000. A secondary antibody reaction was performed at room temperature for 1 hour. […]

SMILES | mushroom tyrosinase inhibition activity (mushroom tyrosinase; kojic acid control at 200, 400 or 800 μM (FIG. 2)) | color of the cell pellet (B 16F10 melanoma cells; 20 nM α-MSH + 0.625, 1.25, 2.5 mM verbenone (FIG. 5)) | change in melanin content in B 16F10 cells (B 16F10 melanoma cells; screen of six rosemary components, various concentrations, 72 hours, 490 nm, compared to arbutin-treated cells (FIG. 1)) | melanin content in B16F10 cells (B 16F10 melanoma cells; α-MSH 24 hours, then 0.625, 1.25 and 2.5 mM, measured after 24 and 48 hours (FIG. 4)) | mushroom tyrosinase inhibition activity (mushroom tyrosinase; 2.5 and 5 mM verbenone (FIG. 2)) | tyrosinase activity in B16F10 cells [1] | expression levels of the melanogenesis-related proteins ([2]; 20 nM α-MSH for 24 hours, then 0.625, 1.25, 2.5 mM, western blotting (FIG. 6A)) | expression levels of melanogenesis-related proteins TRP-1, TRP-2, tyrosinase and MITF ([2]; without α-MSH, 0.625, 1.25, 2.5 mM, 72 hours, western blotting (FIG. 6B))
O=c1cc(CO)occ1O [kojic acid, reference compound] | observed in a concentration-dependent manner |  |  |  |  |  |  | 
CC1=CC(=O)[C@@H]2C[C@H]1C2(C)C [verbenone] |  | weakened by verbenone in a concentration-dependent manner | most significantly decreased | reduced by verbenone in B16F10 cells in a concentration-dependent manner | no inhibitory effect was observed | inhibited tyrosinase in B16F10 cells | reduced in the verbenone-treated group in a concentration-dependent manner | decreased by verbenone in a concentration-dependent manner
